Source: ChEMBL document CHEMBL5257129, “Design, synthesis, and anticancer evaluation of arylurea derivatives as potent and selective type II irreversible covalent FGFR4 inhibitors” (Bioorg Med Chem, 2023)

Columns and labels:
[1] = test system: Hep 3B2; experiment: Antiproliferative activity against human Hep3B cells assessed as inhibition of cell growth measured after 72 hrs by CCK8 assay; format: functional, cell-based
[2] = test system: Hep 3B2; experiment: Antiproliferative activity against human Hep3B cells assessed as inhibition of cell growth at 10 uM measured after 72 hrs by CCK8 assay; format: functional
[3] = test system: Huh-7; experiment: Antiproliferative activity against human Huh-7 cells assessed as inhibition of cell growth at 10 uM measured after 72 hrs by CCK8 assay; format: functional
[4] = test system: Huh-7; experiment: Antiproliferative activity against human Huh-7 cells assessed as inhibition of cell growth measured after 72 hrs by CCK8 assay; format: functional, cell-based; settings: Huh-7, 72 h
[5] = AUC(0 to infinity) in Sprague-Dawley rat at 20 mg/kg, po measured upto 24 hrs by LC/MS/MS analysis; format: ADME, organism-based; design: dose 20 mg/kg, time < 24 hrs, route po; settings: in vivo
[6] = Cmax in Sprague-Dawley rat at 20 mg/kg, po measured upto 24 hrs by LC/MS/MS analysis; format: ADME, organism-based; design: dose 20 mg/kg, time < 24 hrs, route po; settings: in vivo
[7] = Apparent volume of distribution in Sprague-Dawley rat at 5 mg/kg, iv measured upto 24 hrs by LC/MS/MS analysis; format: ADME, organism-based; settings: in vivo, read-out: Vz
[8] = Tmax in Sprague-Dawley rat at 5 mg/kg, iv measured upto 24 hrs by LC/MS/MS analysis; format: ADME, organism-based; settings: in vivo
[9] = AUC(0 to t) in Sprague-Dawley rat at 20 mg/kg, po measured upto 24 hrs by LC/MS/MS analysis; format: ADME, organism-based; design: dose 20 mg/kg, time < 24 hrs, route po; settings: in vivo
[10] = Cmax in Sprague-Dawley rat at 5 mg/kg, iv measured upto 24 hrs by LC/MS/MS analysis; format: ADME, organism-based; design: time < 24 hrs, dose 5 mg/kg, route iv; settings: in vivo
[11] = Initial plasma concentration in Sprague-Dawley rat at 5 mg/kg, iv measured upto 24 hrs by LC/MS/MS analysis; format: ADME, organism-based
[12] = AUC(0 to infinity) in Sprague-Dawley rat at 5 mg/kg, iv measured upto 24 hrs by LC/MS/MS analysis; format: ADME, organism-based; design: dose 5 mg/kg, time < 24 hrs, route iv; settings: in vivo
[13] = Half life in Sprague-Dawley rat at 5 mg/kg, iv measured upto 24 hrs by LC/MS/MS analysis; format: ADME, organism-based; settings: in vivo
[14] = Mean residence time (0 to t) in Sprague-Dawley rat at 20 mg/kg, po measured upto 24 hrs by LC/MS/MS analysis; format: ADME, organism-based; settings: in vivo
[15] = Tmax in Sprague-Dawley rat at 20 mg/kg, po measured upto 24 hrs by LC/MS/MS analysis; format: ADME, organism-based; settings: in vivo
[16] = Clearance in Sprague-Dawley rat at 5 mg/kg, iv measured upto 24 hrs by LC/MS/MS analysis; format: ADME, organism-based; settings: in vivo
[17] = Mean residence time (0 to t) in Sprague-Dawley rat at 5 mg/kg, iv measured upto 24 hrs by LC/MS/MS analysis; format: ADME, organism-based; settings: in vivo
[18] = AUC(0 to t) in Sprague-Dawley rat at 5 mg/kg, iv measured upto 24 hrs by LC/MS/MS analysis; format: ADME, organism-based; design: time < 24 hrs, dose 5 mg/kg, route iv; settings: in vivo
[19] = Half life in Sprague-Dawley rat at 20 mg/kg, po measured upto 24 hrs by LC/MS/MS analysis; format: ADME, organism-based; settings: in vivo

C/C=C/C(=O)Nc1ccc(Oc2ccc(NC(=O)Nc3ccc(CN4CCN(C)CC4)c(C(F)(F)F)c3)c(C)c2)cn1
IC50 [1]: 1.12 µM
inhibition at 10 µM [2]: 87%
inhibition at 10 µM [3]: 86.7%
IC50 [4]: 1.02 µM

C=CC(=O)Nc1ccc(-c2ccc(NC(=O)Nc3ccc(CN4CCN(C)CC4)c(C(F)(F)F)c3)c(C)c2)cn1
IC50 [1]: 3.18 µM
inhibition at 10 µM [2]: 94.6%
inhibition at 10 µM [3]: 94.8%
IC50 [4]: 3.35 µM

Cc1ccc(C(=O)Nc2ccc(CN3CCN(C)CC3)c(C(F)(F)F)c2)cc1C#Cc1cnc2cccnn12 [PONATINIB]
IC50 [1]: 0.72 µM
inhibition at 10 µM [2]: 95.5%
inhibition at 10 µM [3]: 90.5%
IC50 [4]: 0.99 µM

C=CC(=O)Nc1ccc(-c2ccc(NC(=O)Nc3ccc(CN4CCN(C)CC4)c(C(F)(F)F)c3)c(Cl)c2)cn1
IC50 [1]: 1.27 µM
inhibition at 10 µM [2]: 99.1%
inhibition at 10 µM [3]: 91.4%
IC50 [4]: 1.62 µM

CC#CC(=O)Nc1ccc(Oc2ccc(NC(=O)Nc3ccc(CN4CCN(C)CC4)c(C(F)(F)F)c3)c(C)c2)cn1
inhibition at 10 µM [2]: 92.3%
inhibition at 10 µM [3]: 93.2%

C=CC(=O)Nc1ccc(-c2ccc(NC(=O)Nc3ccc(CN4CCN(C)CC4)c(C(F)(F)F)c3)cc2F)cn1
inhibition at 10 µM [2]: 95.7%
inhibition at 10 µM [3]: 96.7%

C=C(F)C(=O)Nc1ccc(-c2ccc(NC(=O)Nc3ccc(CN4CCN(C)CC4)c(C(F)(F)F)c3)c(C)c2)cn1
IC50 [1]: 3.24 µM
inhibition at 10 µM [2]: 91.2%
inhibition at 10 µM [3]: 93%
IC50 [4]: 3.38 µM

C=CC(=O)Nc1ccc(Oc2ccc(NC(=O)Nc3ccc(CN4CCN(C)CC4)c(C(F)(F)F)c3)c(C)c2)cn1
inhibition at 10 µM [2]: 84.7%
inhibition at 10 µM [3]: 87.2%

C=CC(=O)Nc1ccc(-c2cnc(NC(=O)Nc3ccc(CN4CCN(C)CC4)c(C(F)(F)F)c3)cn2)cn1
inhibition at 10 µM [2]: 86.1%
inhibition at 10 µM [3]: 84.5%

C=CC(=O)Nc1ccc(Oc2ccc(NC(=O)Nc3ccc(CN4CCN(C)CC4)c(C(F)(F)F)c3)cc2)cn1
AUC(0-inf) [5]: 149 ng·h/mL
Cmax [6]: 23.7 ng/mL
Vd [7]: 8.1 L/kg
IC50 [1]: 0.22 µM
Tmax [8]: 4.98 min
AUC(0-t) at 24 h [9]: 140 ng·h/mL
Cmax [10]: 4190 ng/mL
C0 at 24 h [11]: 4930 ng/mL
AUC(0-inf) [12]: 4260 ng·h/mL
half-life [13]: 4.75 h
MRT last at 24 h [14]: 3.99 h
Tmax [15]: 2.67 h
inhibition at 10 µM [2]: 91%
clearance [16]: 19.6 mL/min/kg
inhibition at 10 µM [3]: 97.7%
MRT last at 24 h [17]: 1.25 h
AUC(0-t) at 24 h [18]: 4240 ng·h/mL
half-life [19]: 3.12 h
IC50 [4]: 0.25 µM

C=CC(=O)Nc1ccc(-c2ccc(NC(=O)Nc3ccc(CN4CCN(C)CC4)c(C(F)(F)F)c3)cc2)cn1
inhibition at 10 µM [2]: 95.8%
inhibition at 10 µM [3]: 94.8%

C=CC(=O)Nc1ccc(-c2ccc(NC(=O)Nc3ccc(CN4CCN(C)CC4)c(C(F)(F)F)c3)nc2)cn1
inhibition at 10 µM [2]: 67%
inhibition at 10 µM [3]: 59%

C=CC(=O)Nc1ccc(-c2ccc(NC(=O)Nc3ccc(CN4CCN(CC)CC4)c(C(F)(F)F)c3)c(C)c2)cn1
inhibition at 10 µM [2]: 85.4%
inhibition at 10 µM [3]: 80.3%

Cc1cc(-c2ccc(NC(=O)CCl)nc2)ccc1NC(=O)Nc1ccc(CN2CCN(C)CC2)c(C(F)(F)F)c1
IC50 [1]: 22.1 µM
inhibition at 10 µM [2]: 87.6%
inhibition at 10 µM [3]: 80.9%
IC50 [4]: 21.5 µM

C=CC(=O)Nc1ccc(-c2ccc(NC(=O)Nc3ccc(CN4CCN(C)CC4)c(C(F)(F)F)c3)cc2C)cn1
inhibition at 10 µM [2]: 95.3%
inhibition at 10 µM [3]: 96.9%
